# According to the NIST ThermoML archive (doi:10.1021/je5006938):
# Numbers after ± are expanded uncertainties.
# Details: Liquid, Closed cell (Static) method
SMILES,vapor or sublimation pressure (268.13 K),vapor or sublimation pressure (278.13 K),vapor or sublimation pressure (288.15 K),vapor or sublimation pressure (298.17 K),vapor or sublimation pressure (308.2 K),vapor or sublimation pressure (318.21 K),vapor or sublimation pressure (278.14 K),vapor or sublimation pressure (288.14 K),vapor or sublimation pressure (298.14 K),vapor or sublimation pressure (308.19 K),vapor or sublimation pressure (318.22 K)
"FC(F)(F)C1(F)OC1(F)F (configuration not stated) [2,2,3-trifluoro-3-(trifluoromethyl)oxirane]",258.47 ± 1.6 kPa,365.66 ± 1.8 kPa,503.71 ± 2.1 kPa,678.24 ± 2.5 kPa,894.42 ± 3 kPa,1160.2 ± 3.4 kPa,–,–,–,–,–
FC(F)=C(F)C(F)(F)F [hexafluoropropene],278.57 ± 1.7 kPa,–,–,–,–,–,394.08 ± 1.9 kPa,542.58 ± 2.2 kPa,729.82 ± 2.6 kPa,963.24 ± 3.2 kPa,1251.2 ± 3.6 kPa
